According to patent US9328138B2 (priority 2011, dated 2016):
pKi: −log10 of the molar value.

Key:
[1] = target: T1, HCV genotype 1b (BK) NS3 modified enzyme with a R155K mutation (Hepatitis C virus genotype 1b, UniProt P26663, R1181K); assay: HCV NS3 protease time-resolved fluorescence (TRF) assay, genotype 1b R155K; type: biochemical; details: Ki 1b R155K, genotype 1b (BK) NS3 R155K; single value
T1 construct: HCV genotype 1b (BK) NS3 modified enzyme
In short: (§1)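 Inhibitor titrations are mixed with NS3/NS4A in pH 7.5 HEPES buffer containing 10 mM DTT and 15% glycerol for 10 min before substrate (25 nM final) is added. After 6 h at room temperature, delayed fluorescence is read and fitted to a four-parameter curve for IC50.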

[2] = target: HCV NS3 protease genotype 3a (3A-1) (Hepatitis C virus genotype 3a, UniProt Q81258); assay: HCV NS3 protease time-resolved fluorescence (TRF) assay, genotype 3a; type: biochemical; details: Ki 3a
In short: as §1

Structure (SMILES) | pKi [1] | pKi [2]
C=C[C@@H]1C[C@]1(NC(=O)[C@@H]1C[C@@H]2CN1C(=O)[C@H](C(C)(C)C)NC(=O)O[C@@H]1C[C@H]1CCCCCc1c(nc3ccccc3c1OCCCN(CC(O)c1ccc(O)c(O)c1)C(C)C)O2)C(=O)NS(=O)(=O)C1(C)CC1 (stereo partly drawn) [Example 188, (1aR,5S,8S,10R,22aR)-5-tert-butyl-17-(3-{[2-(3,4-dihydroxyphenyl)-2-hydroxyethyl](propan-2-yl)amino}propoxy)-N-[(1R,2S)-2-ethenyl-1-{[(1-methylcyclopropyl)sulfonyl]carbamoyl}cyclopropyl]-3,6-dioxo-1,1a,3,4,5,6,9,10,18,19,20, 21,22,22a-tetradecahydro-8H-7,10-methanocyclopropa[18,19][1,10,3,6] dioxadiazacyclononadecino[11,12-b] quinoline-8-carboxamide] | 10.48 | 9.07
C=C[C@@H]1C[C@]1(NC(=O)[C@@H]1C[C@@H]2CN1C(=O)[C@H](C1CCCCC1)NC(=O)O[C@@H]1C[C@H]1CCCCCc1c(nc3ccccc3c1OCCCSc1nncn1C)O2)C(=O)NS(=O)(=O)C1(C)CC1 [Example 171, (1aR,5S,8S,10R,22aR)-5-cyclohexyl-N-[(1R,2S)-2-ethenyl-1-{[(1-methylcyclopropyl)sulfonyl]carbamoyl}cyclopropyl]-17-{3-[(4-methyl-4H-1,2,4-triazol-3-yl)sulfanyl]propoxy}-3,6-dioxo-1,1a,3,4,5,6,9,10, 18,19,20,21,22,22a-tetradecahydro-8H-7,10-methanocyclopropa[18,19][1,10,3,6] dioxadiazacyclononadecino[11,12-b] quinoline-8-carboxamide] | 10.00 | 8.70
C=C[C@@H]1C[C@]1(NC(=O)[C@@H]1C[C@@H]2CN1C(=O)[C@H](C(C)(C)C)NC(=O)O[C@@H]1CCC[C@H]1CC/C=C/Cc1c(nc3ccccc3c1OCCCO)O2)C(=O)NS(=O)(=O)C1CC1 [Example 70, (3aR,7S,10S,12R,21E,24aS)-7-tert-butyl-N-{(1R,2S)-1-[(cyclopropylsulfonyl)carbamoyl]-2-ethenylcyclopropyl}-19-(3-hydroxypropoxy)-5,8-dioxo-1,2,3,3a,5,6,7,8,11,12,20,23,24,24a-tetradecahydro-10H-9,12-methanocyclopenta[18,19][1,10,3,6]dioxadiazacyclononadecino[11,12-b]quinoline-10-carboxamide] | 10.18 | 9.23
C=C[C@@H]1C[C@]1(NC(=O)[C@@H]1C[C@@H]2CN1C(=O)[C@H](C1CCCC1)NC(=O)O[C@@H]1CCC[C@H]1CC/C=C/Cc1c(nc3ccccc3c1OC(=O)CC(C)C)O2)C(=O)NS(=O)(=O)C1CC1 [Example 41, (3aR,7S,10S,12R,21E,24aS)-7-cyclopentyl-10-({(1R,2S)-1-[(cyclopropylsulfonyl)carbamoyl]-2-ethenylcyclopropyl}carbamoyl)-5,8-dioxo-1,2,3,3a,5,6,7,8,11,12,20,23,24,24a-tetradecahydro-10H-9,12-methanocyclopenta[18,19][1,10,3,6]dioxadiazacyclononadecino[11,12-b]quinolin-19-yl 3-methylbutanoate] | 8.18 | 7.14
C=C[C@@H]1C[C@]1(NC(=O)[C@@H]1C[C@@H]2CN1C(=O)[C@H](C(C)(C)C)NC(=O)O[C@@H]1CCC[C@H]1CCCCCc1c(nc3ccccc3c1OCCCN(C)C)O2)C(=O)NS(=O)(=O)C1(COC)CC1 [Example 97, (3aR,7S,10S,12R,24aR)-7-tert-butyl-19-[3-(dimethyl-amino)propoxy]-N-[(1R,2S)-2-ethenyl-1-({[1-(methoxymethyl)cyclopropyl]sulfonyl}carbamoyl)cyclopropyl]-5,8-dioxo-1,2,3,3a,5,6,7,8,11,12,20,21,22,23, 24,24a-hexadecahydro-10H-9,12-methanocyclopenta[18,19] [1,10,3,6]dioxadiaza-cyclononadecino [11,12,-b]quinoline-10-carboxamide] | 10.10 | 7.14
C=C[C@@H]1C[C@]1(NC(=O)[C@@H]1C[C@@H]2CN1C(=O)[C@H](C(C)(C)C)NC(=O)O[C@@H]1C[C@H]1CCCCCc1c(nc3ccccc3c1OCCCN1CC(C#N)C1)O2)C(=O)NS(=O)(=O)C1(C)CC1 [Example 184, (1aR,5S,8S,10R,22aR)-5-tert-butyl-17-[3-(3-cyanoazetidin-1-yl)propoxy]-N-[(1R,2S)-2-ethenyl-1-{[(1-methylcyclopropyl)sulfonyl]carbamoyl}cyclopropyl]-3,6-dioxo-1,1a,3,4,5,6,9,10, 18,19,20,21,22,22a-tetradecahydro-8H-7,10-methanocyclopropa[18,19][1,10,3,6] dioxadiazacyclononadecino[11,12-b] quinoline-8-carboxamide] | 10.24 | 8.96
C=C[C@@H]1C[C@]1(NC(=O)[C@@H]1C[C@@H]2CN1C(=O)[C@H](C(C)(C)C)NC(=O)O[C@@H]1C[C@H]1CCCCCc1c(nc3ccccc3c1OCCCN1CCCC(F)C1)O2)C(=O)NS(=O)(=O)C1(C)CC1 (stereo partly drawn) [Example 158, (1aR,5S,8S,10R,22aR)-5-tert-butyl-N-[(1R,2S)-2-ethenyl-1-{[(1-methylcyclopropyl)sulfonyl]carbamoyl}cyclopropyl]-17-[3-(3-fluoropiperidin-1-yl)propoxy]-3,6-dioxo-1,1a,3,4,5,6,9,10,18,19, 20,21,22,22a-tetradecahydro-8H-7,10-methanocyclopropa[18,19][1,10,3,6] dioxadiazacyclononadecino[11,12-b] quinoline-8-carboxamide] | 9.72 | 8.59
C=C[C@@H]1C[C@]1(NC(=O)[C@@H]1C[C@@H]2CN1C(=O)[C@H](C(C)(C)C)NC(=O)O[C@@H]1C[C@H]1CCCCCc1c(nc3ccccc3c1OCC1CN(C(=O)OC(C)(C)C)C1)O2)C(=O)NS(=O)(=O)C1(C)CC1 [Example 142, tert-butyl 3-({[(1aR,5S,8S,10R, 22aR)-5-tert-butyl-8-{[(1R,2S)-2-ethenyl-1-{[(1-methylcyclopropyl)sulfonyl]carbamoyl}cyclopropyl]carbamoyl}-3,6-dioxo-1,1a,3,4,5,6,9,10,18,19,20,21,22,22a-tetradeca hydro-8H-7,10-methanocyclopropa[18,19][1,10,3,6]dioxadiazacyclononadecino [11,12-b]quinolin-17-yl]oxy}methyl) azetidine-1-carboxylate] | 9.15 | 7.82
C=C[C@@H]1C[C@]1(NC(=O)[C@@H]1C[C@@H]2CN1C(=O)[C@H](C1CCCC1)NC(=O)O[C@@H]1CCC[C@H]1CC/C=C/Cc1c(nc3ccccc3c1OCCCN1CCCC1=O)O2)C(=O)NS(=O)(=O)C1CC1 [Example 78, (3aR,7S,10S,12R,21E,24aS)-7-cyclo pentyl-N-{(1R,2S)-1-[(cyclopropylsulfonyl)carbamoyl]-2-ethenylcyclopropyl}-5,8-dioxo-19-[3-(2-oxopyrrolidin-1-yl)propoxy]-1,2,3,3a,5,6,7,8,11,12,20,23,24,24a-tetradecahydro-10H-9,12-methano-cyclopenta[18,19][1,10,3,6]dioxa diazacyclonona decino[11,12-b] quinoline-10-carboxamide] | 10.10 | 9.27
